{
  "source": "patent US10463610B2",
  "about": "“Composition comprising diacid derivatives and their use in the treatment of collagenic eye disorders” (THE UNIVERSITY OF LIVERPOOL, priority 2015, dated 2019)",
  "system": "pig corneas",
  "assay": "Tensile test (stiffness) of pig corneas after treating whole eye globes with cross-linking solution",
  "settings": "Experiment 1: diacid/NHS/EDCI solution in PBS with excess EDCI, 30 minutes incubation at 37° C., n=3 (FIG. 1)",
  "excerpt": "Pig eyes were collected from the abattoir on the day of slaughter. They were brought to the laboratory and any remaining soft tissue was carefully dissected away leaving just globe and the small section of optic nerve. These were washed 3 times in PBS. A drop of fluorescein dye (1% diluted 1:10 in PBS) was applied to the cornea of each eye to evaluate the integrity of the corneal epithelium (as used in the clinic). The globes were then washed again in PBS 3 times.\nThe globes were mounted individually on Perspex rings and placed corneal side down in 6-well cell culture plates. This ensured that the eyes were balanced stably and that the corneal surface was exposed in a controlled manner to the cross-linking solution.\nDissolve 575 mg of NHS and 775 mg of EDCI in 22.5 ml of PBS. Dissolve 500 mg Sebacic acid (decanedioic acid) or 435 mg of Suberic acid (octanedioic acid) or 365 mg of Adipic acid (hexanedioic acid) in 2.5 ml of PBS. Add each diacid solution to 22.5 ml of NHS/EDCI solution.\nExperiments 2 and 3 used a Molar ratio of […] of suberic:NHS:EDCI using 319 mg NHS, 430 mg EDCI and 241 mg suberic acid. NHS/EDCI dissolved first in 7.5 ml PBS and suberic acid dissolved in 7.5 ml PBS with the addition of 500 ul DMAE to aid solubility. The two solution were added to each other and made up to 15 ml if necessary.\nAdd diacid/NHS/EDCI solution (4-5 ml) to 3 eyes for each diacid and add PBS (4-5 ml) to 3 eyes as control. Incubate for 30 minutes at 37° C. After 30 minutes, wash off solution with PBS (5 times).\nAdd suberic acid/NHS/EDCI solution (4-5 ml) to 3 eyes and add PBS (4-5 ml) to 3 eyes as control. […]\nSince the cross-linking chemistry is based on EDCI/NHS mediated chemistry, the individual active moieties being used (EDCI and NHS) in the treatment solution are chemically able to crosslink proteins. The ability at which the individual chemicals are able to increase the biomechanical property of the cornea was assessed. Corneas were prepared, the masses of all the chemicals were measured out, and the corneas were treated as described above. […]",
  "data": [
    {"smiles": "O=C(O)CCCCCCCCC(=O)O", "note": "[Sebacic acid, decanedioic acid]", "values": [
      {"measurement": "increase in stiffness compared to the untreated control corneas", "result": 54.8, "unit": "%"}
    ]},
    {"smiles": "O=C(O)CCCCC(=O)O", "note": "[adipic acid, hexanedioic acid]", "values": [
      {"measurement": "increase in stiffness compared to the untreated control corneas", "result": 63.6, "unit": "%"}
    ]},
    {"smiles": "O=C(O)CCCCCCC(=O)O", "note": "[suberic acid, octanedioic acid]", "values": [
      {"measurement": "increase in stiffness compared to the untreated control corneas", "result": 84.9, "unit": "%"}
    ]}
  ]
}
